From patent publication US6503943B1, “Platinum complex, its preparation and therapeutic application” (priority 1998, dated 2003)
Values joined by “and” are separate entries in the source; they are usually repeats but may differ in a detail not shown here. Equal entries are not always repeated.

Key:
[1] = test system: ascitic form of Ehrlich tumor (ATE); assay: Antitumor effect at animals with ascitic form of Ehrlich tumor (ATE) (Example 10); type: in vivo, mice ICR; details: for Survival (in % of control) / Survival time, Geom. mean / Tumor mass (%) of control / Tumor mass, Arithm. mean: 1st day; for Tumor mass (%) of control / Tumor mass, Arithm. mean: dissection 10th day
[2] = test system: ascitic form of Ehrlich tumor (ATE); assay: Antitumor effect at animals with ascitic form of Ehrlich tumor (ATE) (Example 11);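 for all read-outs here: half of each dose group killed on day 10, tumor mass taken as animal mass lost on ascites aspiration, ascitocrit by microhematocrit centrifuge, rest followed daily for survival versus reference group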; details: for Survival (in % of control) / Survival time, Geom. mean / Total ascitocrit (%) of control / Total ascitocrit (mass of cell fraction of a tumor), Arithm. mean / Tumor mass (%) of control / Tumor mass, Arithm. mean: 1st day; for Total ascitocrit (%) of control / Total ascitocrit (mass of cell fraction of a tumor), Arithm. mean / Tumor mass (%) of control / Tumor mass, Arithm. mean: dissection 10th day
Method: After termination of application, one half of animals in each dosage group was destroyed at 10th day after inoculation in ether narcosis, the ascits were sucked out after laparotomy and the mass of a tumor at each of the animals was determined from the difference of mass before and after sucking out the ascit. Ascitocrit in ascitic liquor of single animals was determined on microhematocrit centrifuge in heparinized capillary tubes of 75 mm length. The value of “total ascitocrit”corresponding to a mass of cells in ascitic liquor has been determined from percentage of ascitocrit and mass of the tumor. Remaining animals were left for monitoring the survival time. In these animals, the survival time was monitored on daily basis. The dependence of the survival time value on the applied dose was evaluated in comparison with the reference group.
The single estimated time points as biological responses were evaluated by a test of equivalence of two mean values (Student's t-test). Geometric mean was calculated from single values of survival time, arithmetic means were calculated from single values of tumor mass and total ascitocrit. Difference between mean values was evaluated by a test of equivalence of two mean values (Student's t-test) under presumption of normal probability distribution of mass values as well as of total ascitocrit values and of logarithmic/normal distribution of temporal values, all under presumption of possible unknown disseminations. Those diferences in mean values, whose values of a test criterium exceeded the critical value at the 5% and 1% significance level were evaluated as statistically significant and highly statistically significant, respectively.
The optimum dosage has been calculated from values of survival time according to the proportional risk model of Cox (Carter et al., 1982). Parameters of Weinbull distribution and logarithmic transformation of introductory data were used for estimation of a basic and modified survival function from experimental data.

[3] = test system: mammal adenocarcinoma MC2111; assay: Antitumor effect at animals with solid form of mammal adenocarcinoma MC2111 (Example 9); type: in vivo, mice DBA1; details: for Tumor mass (%) of control / Tumor mass, Arithm. mean: 5th day, tumor size 14th day, mass from regression
leucaemia L1210 [4] = assay: Antitumor effect at animals with leucaemia L1210, continual versus intermitent regimen (Example 6); type: in vivo, mice DBA2; details: for Survival (in % of control) / Survival time, Geom. mean: 1st day
leucaemia L1210 [5] = assay: Antitumor effect at animals with leucaemia L1210, single administration (Example 4); type: in vivo, mice DBA2; details: for Survival (in % of control) / Survival time, Geom. mean: 1st day
leucaemia L1210 [6] = assay: Antitumor effect at animals with leucaemia L1210, continual regimen (Example 7); type: in vivo, mice DBA2
leucaemia L1210 [7] = assay: Antitumor effect at animals with leucaemia L1210, intermitent administration 3x (Example 5); type: in vivo, mice DBA2; details: 1st, 5th and 9th day
Gardner lymphosarcoma = assay: Antitumor effect at animals with solid form of Gardner lymphosarcoma (Example 8); type: in vivo, mice C3H; details: 5th day, tumors weighed 14th day

N.N.[Cl][Pt][Cl] [Platidiam, cis-diammin-dichloroplatinum(II) complex]
Survival (in % of control) ([1]; 2 mg/kg s.c. 1x): 120%
Survival time, Geom. mean ([1]; 2 mg/kg s.c. 1x): 13.8 days
Tumor mass (%) of control ([1]; 2 mg/kg s.c. 1x): 115%
Tumor mass, Arithm. mean ([1]; 2 mg/kg s.c. 1x): 3.06 g
Survival (in % of control) ([1]; 4 mg/kg s.c. 1x): 190%
Survival time, Geom. mean ([1]; 4 mg/kg s.c. 1x): 21.8 days
Tumor mass (%) of control ([1]; 4 mg/kg s.c. 1x): 101%
Tumor mass, Arithm. mean ([1]; 4 mg/kg s.c. 1x): 2.68 g
Survival (in % of control) ([1]; 8 mg/kg s.c. 1x): 184%
Survival time, Geom. mean ([1]; 8 mg/kg s.c. 1x): 21.0 days
Tumor mass (%) of control ([1]; 8 mg/kg s.c. 1x): 82%
Tumor mass, Arithm. mean ([1]; 8 mg/kg s.c. 1x): 2.16 g
Significance of mean survival time increase in comparison with untreated control (p≦0.01), in words ([1]; Tab. 7-2): atatistically highly significant
Survival (in % of control) ([2]; 2 mg/kg s.c. 1x): 128%
Survival time, Geom. mean ([2]; 2 mg/kg s.c. 1x): 11.4 days
Total ascitocrit (%) of control ([2]; 2 mg/kg s.c. 1x): 115%
Total ascitocrit (mass of cell fraction of a tumor), Arithm. mean ([2]; 2 mg/kg s.c. 1x): 0.79 g
Tumor mass (%) of control ([2]; 2 mg/kg s.c. 1x): 72%
Tumor mass, Arithm. mean ([2]; 2 mg/kg s.c. 1x): 2.83 g
Survival (in % of control) ([2]; 4 mg/kg s.c. 1x): 197%
Survival time, Geom. mean ([2]; 4 mg/kg s.c. 1x): 17.5 days
Total ascitocrit (%) of control ([2]; 4 mg/kg s.c. 1x): 116%
Total ascitocrit (mass of cell fraction of a tumor), Arithm. mean ([2]; 4 mg/kg s.c. 1x): 0.80 g
Tumor mass (%) of control ([2]; 4 mg/kg s.c. 1x): 90%
Tumor mass, Arithm. mean ([2]; 4 mg/kg s.c. 1x): 3.53 g
Survival (in % of control) ([2]; 8 mg/kg s.c. 1x): 208%
Survival time, Geom. mean ([2]; 8 mg/kg s.c. 1x): 18.5 days
Total ascitocrit (%) of control ([2]; 8 mg/kg s.c. 1x): 100%
Total ascitocrit (mass of cell fraction of a tumor), Arithm. mean ([2]; 8 mg/kg s.c. 1x): 0.68 g
Tumor mass (%) of control ([2]; 8 mg/kg s.c. 1x): 60%
Tumor mass, Arithm. mean ([2]; 8 mg/kg s.c. 1x): 2.36 g
Evaluation of antitumor effect (survival time versus control), in words ([2]; p.o.×9, Platidiam 8 and 4 mg/kg s.c.×1, Tab. 8.1): antitumor effective
Tumor mass (%) of control ([3]; 4 mg/kg s.c. 1x): 76%
Tumor mass, Arithm. mean ([3]; 4 mg/kg s.c. 1x): 3.53 g
Tumor mass (%) of control ([3]; 8 mg/kg s.c. 1x): 69%
Tumor mass, Arithm. mean ([3]; 8 mg/kg s.c. 1x): 3.20 g
LTS - Long Term Survivors; the amount of animals destroyed at 120th day ([3]; mouse, in vivo): 1/10
Survival (in % of control) ([3]; mouse, in vivo): >162 2) % and >158 1) %
Survival time, Geom. mean ([3]; mouse, in vivo): 35.1 days and 34.3 days
Evaluation of antitumor effect, in words ([3]; p.o.×9 12, 6, 3 mg/kg/day, Platidiam 8 and 4 mg/kg s.c. once): antitumor effective
Survival (in % of control) (leucaemia L1210 [4]; 2 mg/kg s.c. 1x): 155%
Survival time, Geom. mean (leucaemia L1210 [4]; 2 mg/kg s.c. 1x): 17.9 days
Survival (in % of control) (leucaemia L1210 [4]; 4 mg/kg s.c. 1x): 174%
Survival time, Geom. mean (leucaemia L1210 [4]; 4 mg/kg s.c. 1x): 20.2 days
Survival (in % of control) (leucaemia L1210 [4]; 8 mg/kg s.c. 1x): 204%
Survival time, Geom. mean (leucaemia L1210 [4]; 8 mg/kg s.c. 1x): 23.7 days
Evaluation of antitumor effect (survival time versus control), in words (leucaemia L1210 [4]; LA-12 6 mg/kg p.o.×9, Platidiam 8 and 4 mg/kg s.c.×1, LA-2 any of the dosage groups): antitumor effective
Survival (in % of control) (leucaemia L1210 [5]; 2.5 mg/kg s.c. 1x): 112%
Survival time, Geom. mean (leucaemia L1210 [5]; 2.5 mg/kg s.c. 1x): 14.2 days
Survival (in % of control) (leucaemia L1210 [5]; 5 mg/kg s.c. 1x): >132%
Survival time, Geom. mean (leucaemia L1210 [5]; 5 mg/kg s.c. 1x): 16.7 days
Increase of mean value of survival time against the control (leucaemia L1210 [5]; 5 mg/kg s.c., single, not statistically significant): 32%
Survival (in % of control) (leucaemia L1210 [5]; 10 mg/kg s.c. 1x): 48%
Survival time, Geom. mean (leucaemia L1210 [5]; 10 mg/kg s.c. 1x): 6.1 days
LTS - Long Term Survivors (amount of surviving animals in a group) (leucaemia L1210 [6]; 4 mg/kg s.c. 1x, 1st day): 5/10
Survival (in % of control) (leucaemia L1210 [6]; 4 mg/kg s.c. 1x, 1st day): >223%
Survival time, Geom. mean (leucaemia L1210 [6]; 4 mg/kg s.c. 1x, 1st day): 50.2 days
Increase of survival time value in comparison with the control group (leucaemia L1210 [6]; 4 mg/kg s.c.×1): 123%
Survival (in % of control) (leucaemia L1210 [7]; 1 mg/kg/day s.c. 3x): 178%
Survival time, Geom. mean (leucaemia L1210 [7]; 1 mg/kg/day s.c. 3x): 28.0 days
Survival (in % of control) (leucaemia L1210 [7]; 2 mg/kg/day s.c. 3x): 168%
Survival time, Geom. mean (leucaemia L1210 [7]; 2 mg/kg/day s.c. 3x): 26.3 days
Survival (in % of control) (leucaemia L1210 [7]; 4 mg/kg/day s.c. 3x): 106%
Survival time, Geom. mean (leucaemia L1210 [7]; 4 mg/kg/day s.c. 3x): 16.6 days
Tumor mass (%) of control (Gardner lymphosarcoma; 2 mg/kg s.c. 1x): 83%
Tumor mass, Arithm. mean (Gardner lymphosarcoma; 2 mg/kg s.c. 1x): 5.19 g
Tumor mass (%) of control (Gardner lymphosarcoma; 4 mg/kg s.c. 1x): 59%
Tumor mass, Arithm. mean (Gardner lymphosarcoma; 4 mg/kg s.c. 1x): 3.68 g
Tumor mass (%) of control (Gardner lymphosarcoma; 8 mg/kg s.c. 1x): 26%
Tumor mass, Arithm. mean (Gardner lymphosarcoma; 8 mg/kg s.c. 1x): 1.64 g
